Experimental data: patent publication US20220331303A1, “USE OF AN OREXIN 2 RECEPTOR AGONIST FOR THE TREATMENT OF EXCESSIVE SLEEPINESS” (Takeda Pharmaceutical Company Limited, priority 2019, published 2022)
“And” between values parts separate entries of the source, which are not always exact repeats. Equal values may be shown once.

System: sleep-deprived healthy volunteers
Assay: Maintenance of wakefulness test (MWT) in sleep-deprived healthy volunteers
Type: in vivo, human
Conditions: for Total Sleep Time LS Mean / Total Sleep Time LS Mean Difference vs Placebo Estimate / Total Wake Time LS Mean / Total Wake Time LS Mean Difference vs Placebo Estimate: M: Modafinil 300 mg; for Duration Total Microsleeps (MWT), LS Mean / Duration Total Microsleeps (MWT), LS Mean Difference vs placebo / Latency to Sleep Onset on MWT, LS Mean / Latency to Sleep Onset on MWT, LS Mean Difference vs placebo / Stage N1 Duration (MWT), LS Mean / Stage N1 Duration (MWT), LS Mean Difference vs placebo / Stage N2 Duration (MWT), LS Mean / Stage N2 Duration (MWT), LS Mean Difference vs placebo / Total Microsleeps (MWT), LS Mean / Total Microsleeps (MWT), LS Mean Difference vs placebo: Modafinil 300 mg (M)
Procedure: The primary objective of this study was to determine the effect of Compound A (methyl (2R,3S)-3-((methylsulfonyl)amino)-2-(((cis-4-phenylcyclohexyl)oxy)methyl)piperidine-1-carboxylate), 44 mg (low dose [LD]) and 112 mg (high dose [HD]), after a single IV dose (compared to placebo) on promoting wakefulness as measured by sleep latency on the MWT (performed at approximately 2, 4, 6, and 8 hours post-dosing starting at approximately 1:00 AM and then at approximate times of 3:00, 5:00, and 7:00 AM) in sleep-deprived healthy volunteers.
This was a phase 1b, single-center, randomized, double-blind, double-dummy, placebo- and active-controlled, 4-period Williams design crossover study to evaluate the PK, PD, and safety of Compound A in sleep-deprived healthy volunteers. Compound A was administered as a 9-hour IV infusion.
Healthy adult male subjects aged 18 to 40 years, inclusive, who satisfied the inclusion and exclusion criteria were enrolled in the trial. On Day 1 of treatment period 1, eligible subjects were equally randomized to 4 treatment sequence groups (sequence 1 to 4) which defined the order of administration for Compound A LD, Compound A HD (both delivered as a 9-hour IV infusion), modafinil 300 mg, and placebo.
During the day before dosing on Day 1, participants were administered the KSS at scheduled timepoints. A practice MWT session was performed on Day 1 treatment period 1 (only once during the entire study) to familiarize subjects with the procedures. Study drug was administered in the clinic in the evening on Day 1 of each treatment period. Subjects underwent the MWT and KSS at specified timepoints after the start of the infusion. Subjects were required to stay awake between the MWT tests. Following completion of the IV infusion on Day 2, subjects underwent an additional MWT test. When the final MWT test and cognitive testing were completed, subjects were allowed to sleep (recovery sleep) for approximately 6 hours. PSG recording was collected during this time. Subjects were discharged from the unit after completion on Day 2 with continuing actigraphy upon discharge (to begin on Day −6 before the next treatment period). The interval between each subsequent treatment period was at least 7 days to ensure that the subject's circadian rhythm had returned to a normal cycle. Subject's vital signs, including BP, were monitored during the dosing and testing period. Blood samples for determination of Compound A plasma concentrations were collected at specified timepoints on Days 1 and 2 of each treatment period. Subjects completed the Columbia-Suicide Severity Rating Scale (C-SSRS) during screening, before study drug administration, and before discharge on Day 2 of each treatment period.
Primary endpoint: Latency for each MWT, defined as time to sleep onset.

[1] = Average Overall, MWT during infusion
[2] = Modafinil 300 mg, after the end of infusion (1 hour post end of infusion)

Compound: NC(=O)C[S+]([O-])C(c1ccccc1)c1ccccc1 (centres unmarked) [Modafinil, modafinil, reference compound]
- Total Sleep Time LS Mean (2 HOURS POST INFUSION START): 0.88 min
- Total Sleep Time LS Mean Difference vs Placebo Estimate (2 HOURS POST INFUSION START): -1.85 min
- Total Wake Time LS Mean (2 HOURS POST INFUSION START): 34.87 min
- Total Wake Time LS Mean Difference vs Placebo Estimate (2 HOURS POST INFUSION START): 17.15 min
- Total Sleep Time LS Mean (4 HOURS POST INFUSION START): 0.96 min
- Total Sleep Time LS Mean Difference vs Placebo Estimate (4 HOURS POST INFUSION START): -2.19 min
- Total Wake Time LS Mean (4 HOURS POST INFUSION START): 36.45 min
- Total Wake Time LS Mean Difference vs Placebo Estimate (4 HOURS POST INFUSION START): 26.40 min
- Total Sleep Time LS Mean (6 HOURS POST INFUSION START): 1.25 min
- Total Sleep Time LS Mean Difference vs Placebo Estimate (6 HOURS POST INFUSION START): -0.98 min
- Total Wake Time LS Mean (6 HOURS POST INFUSION START): 33.11 min
- Total Wake Time LS Mean Difference vs Placebo Estimate (6 HOURS POST INFUSION START): 26.69 min
- Total Sleep Time LS Mean (8 HOURS POST INFUSION START): 2.35 min
- Total Sleep Time LS Mean Difference vs Placebo Estimate (8 HOURS POST INFUSION START): -0.57 min
- Total Wake Time LS Mean (8 HOURS POST INFUSION START): 22.32 min
- Total Wake Time LS Mean Difference vs Placebo Estimate (8 HOURS POST INFUSION START): 18.67 min
- Total Sleep Time LS Mean [1]: 1.36 min
- Total Sleep Time LS Mean Difference vs Placebo Estimate [1]: -1.40 min
- Total Wake Time LS Mean [1]: 31.69 min
- Total Wake Time LS Mean Difference vs Placebo Estimate [1]: 22.23 min
- Average total wake time (MWT), LS mean difference vs placebo (Modafinil 300 mg): 22.23 min
- Total sleep time (MWT), LS mean difference vs placebo (Modafinil 300 mg): -1.40 min
- Duration Total Microsleeps (MWT), LS Mean (2 hours post infusion start): 5.75 s
- Duration Total Microsleeps (MWT), LS Mean Difference vs placebo (2 hours post infusion start): -3.05 s
- Latency to Sleep Onset on MWT, LS Mean (2 hours post infusion start): 35.57 min
- Latency to Sleep Onset on MWT, LS Mean Difference vs placebo (2 hours post infusion start): 19.89 min
- Stage N1 Duration (MWT), LS Mean (2 hours post infusion start): 0.47 min
- Stage N1 Duration (MWT), LS Mean Difference vs placebo (2 hours post infusion start): -0.68 min
- Stage N2 Duration (MWT), LS Mean (2 hours post infusion start): 0.36 min
- Stage N2 Duration (MWT), LS Mean Difference vs placebo (2 hours post infusion start): -0.49 min
- Total Microsleeps (MWT), LS Mean (2 hours post infusion start): 1.06
- Total Microsleeps (MWT), LS Mean Difference vs placebo (2 hours post infusion start): −0.74
- Duration Total Microsleeps (MWT), LS Mean (4 hours post infusion start): 7.91 s
- Duration Total Microsleeps (MWT), LS Mean Difference vs placebo (4 hours post infusion start): -4.39 s
- Latency to Sleep Onset on MWT, LS Mean (4 hours post infusion start): 35.60 min
- Latency to Sleep Onset on MWT, LS Mean Difference vs placebo (4 hours post infusion start): 26.50 min
- Stage N1 Duration (MWT), LS Mean (4 hours post infusion start): 0.68 min
- Stage N1 Duration (MWT), LS Mean Difference vs placebo (4 hours post infusion start): -0.97 min
- Stage N2 Duration (MWT), LS Mean (4 hours post infusion start): 0.20 min
- Stage N2 Duration (MWT), LS Mean Difference vs placebo (4 hours post infusion start): -0.95 min
- Total Microsleeps (MWT), LS Mean (4 hours post infusion start): 1.27
- Total Microsleeps (MWT), LS Mean Difference vs placebo (4 hours post infusion start): −1.08
- Duration Total Microsleeps (MWT), LS Mean (6 hours post infusion start): 9.70 s
- Duration Total Microsleeps (MWT), LS Mean Difference vs placebo (6 hours post infusion start): 2.30 s
- Latency to Sleep Onset on MWT, LS Mean (6 hours post infusion start): 31.89 min
- Latency to Sleep Onset on MWT, LS Mean Difference vs placebo (6 hours post infusion start): 25.74 min
- Stage N1 Duration (MWT), LS Mean (6 hours post infusion start): 0.84 min
- Stage N1 Duration (MWT), LS Mean Difference vs placebo (6 hours post infusion start): -0.31 min
- Stage N2 Duration (MWT), LS Mean (6 hours post infusion start): 0.20 min
- Stage N2 Duration (MWT), LS Mean Difference vs placebo (6 hours post infusion start): -0.30 min
- Total Microsleeps (MWT), LS Mean (6 hours post infusion start): 1.85
- Total Microsleeps (MWT), LS Mean Difference vs placebo (6 hours post infusion start): 0.60
- Duration Total Microsleeps (MWT), LS Mean (8 hours post infusion start): 12.64 s
- Duration Total Microsleeps (MWT), LS Mean Difference vs placebo (8 hours post infusion start): 4.84 s
- Latency to Sleep Onset on MWT, LS Mean (8 hours post infusion start): 20.44 min
- Latency to Sleep Onset on MWT, LS Mean Difference vs placebo (8 hours post infusion start): 16.91 min
- Stage N1 Duration (MWT), LS Mean (8 hours post infusion start): 1.15 min
- Stage N1 Duration (MWT), LS Mean Difference vs placebo (8 hours post infusion start): 0.00 min
- Stage N2 Duration (MWT), LS Mean (8 hours post infusion start): 0.89 min
- Stage N2 Duration (MWT), LS Mean Difference vs placebo (8 hours post infusion start): -0.21 min
- Total Microsleeps (MWT), LS Mean (8 hours post infusion start): 2.22
- Total Microsleeps (MWT), LS Mean Difference vs placebo (8 hours post infusion start): 0.92
- Duration Total Microsleeps (MWT), LS Mean (average overall): 9.00 s
- Duration Total Microsleeps (MWT), LS Mean Difference vs placebo (average overall): -0.08 s
- Latency to Sleep Onset on MWT, LS Mean (average overall): 30.87 min and 30.87 (1.888) min
- Latency to Sleep Onset on MWT, LS Mean Difference vs placebo (average overall): 22.26 min and 22.3 min and 22.62 min and 22.26 (2.634) min
- Stage N1 Duration (MWT), LS Mean (average overall): 0.79 min
- Stage N1 Duration (MWT), LS Mean Difference vs placebo (average overall): -0.49 min
- Stage N2 Duration (MWT), LS Mean (average overall): 0.41 min
- Stage N2 Duration (MWT), LS Mean Difference vs placebo (average overall): -0.49 min
- Total Microsleeps (MWT), LS Mean (average overall): 1.60
- Total Microsleeps (MWT), LS Mean Difference vs placebo (average overall): −0.08
- Latency to Sleep Onset on MWT, LS Mean (SE) [2]: 21.42 (2.168)
- Latency to Sleep Onset on MWT, LS Mean Difference vs placebo, Estimate (SE) [2]: 16 minutes and 16.77 (2.692) minutes
